Results taken from patent publication US6534522B2, “Subtype-selective NMDA receptor ligands and the use thereof” (Warner-Lambert Company, priority 1995, dated 2003).
Structures can show the parent of a compound that is named as a salt. Where two headings read alike, the source gives them in different places.

Experiments:
[1] = biological target: NR1A/2B NMDA receptor (Rattus norvegicus, UniProt P35439+Q00960); assay: Xenopus oocyte expression system, two-electrode voltage clamp, NR1A/2B; type: cell-based
From the text: (§1) Electrophysiological assays may be utilized to characterize the actions of potential subtype-selective ligands at NMDA receptors expressed in Xenopus oocytes. The ligand may be assayed at the different subunit combinations of cloned rat NMDA receptors corresponding to the four putative NMDA receptor subtypes (Moriyoshi et al., Nature (Lond.) 354:31-37 (1991); Monyer et al., Science (Washington, D.C.) 256:1217-1221 (1992); Kutsuwada et al., Nature (Lond.) 358:36-41 (1992); Sugihara et al., Biochem. Biophys. Res. Comm. 185:826-832 (1992)).
(§2) Using fixed saturating concentrations of agonists (glutamate 100 μM, glycine 1-10 μM depending on subunit combination), the inhibitory potency of a putative subtype-selective ligand may be assayed at the NMDA receptors assembled from NR1A/2A, NR1A/2B, NR1A/2C and NR1A/2D subunit combinations.
(§3) The Xenopus oocyte expression system. Mature female Xenopus laevis were anaesthetized (20-40 min) using 0.15% 3-aminobenzoic acid ethyl ester (MS-222) and 2-4 ovarian lobes were surgically removed. Oocytes at developmental stages IV-VI (Dumont, J. N., J. Morphol. 136:153-180 (1972)), were dissected from the ovary still surrounded by enveloping ovarian tissues. Follicle-enclosed oocytes were micro-injected with 1:1 mixtures of cRNA:NR1A+NR2A, 2B, 2C or 2D; injecting ˜2, 5, or 20 ng of RNA encoding each receptor subunit. NR1A encoding cRNA was injected alone at ˜20 ng. Oocytes were stored in Barth's medium containing (in mM): NaCl, 88; KCl, 1; CaCl2, 0.41; Ca(NO3)2, 0.33; MgSO4, 0.82; NaHCO3, 2.4; HEPES 5; pH 7.4, with 0.1 mg/mL gentamycin sulphate. While oocytes were still surrounded by enveloping ovarian tissues the Barth's medium was supplemented with 0.1% bovine serum. Oocytes were defolliculated 1-2 days following injections by treatment with collagenase (0.5 mg/mL Sigma Type I for 0.5-1 hr) (Miledi and Woodward, J. Physiol. (Lond.) 416:601-621 (1989)) and subsequently stored in serum-free medium.
(§4) Electrical recordings were made using a conventional two-electrode voltage clamp (Dagan TEV-200) over periods ranging between 3-21 days following injection. Oocytes were placed in a 0.1 mL recording chamber continuously perfused (5-15 mL min^−1) with frog Ringer's solution containing (in mM): NaCl, 115; KCl, 2; CaCl2, 1.8; HEPES, 5; pH 7.4. Drugs were applied by bath perfusion. When using the more rapid flow rates, half-times for mid-chamber solution changes were between 2-3 sec, however, exchange rates for drug solutions at the oocyte surface (i.e. beneath the vitelline envelope and among the tangles of microvilli) were probably considerably longer (Woodward et al., Mol. Pharmacol. 41:89-103 (1992)). Zero-Ca^2+/Ba^2+ Ringer had the composition (in mM): NaCl, 115; KCl, 2; BaCl2, 1.8; HEPES, 5; pH 7.4. Intraoocyte injections were made by pneumatic pressure-pulse ejection from micropipettes (Miledi and Parker, J. Physiol. (Lond.) 357:173-183 (1984)). Injection solutions of EGTA (40-400 mM) and BAPTA (50-500 mM) were made up in H2O, pH adjusted to 7.4 with KOH or HCl, and filtered to minimize plugging (Acrodisc-13, […]). Pressure was set between 200-400 kPa. The volume of injections was regulated by adjusting the time of pulses (0.1-1 sec) and was estimated by measuring the diameters of ejected droplets.
(§5) Concentration-inhibition curves were fit with equation 2.
(§6) I/Icontrol=1/(1+([antagonist]/10^−pIC50)^n) Eq. 2
(§7) in which Icontrol is the current evoked by agonists alone, pIC50=−log IC50, […] is the concentration of antagonist that produces half maximal inhibition, and n is the slope factor. For incomplete curves analysis by fitting was unreliable and IC50 values were calculated by simple regression over linear portions of the curves (Origin: Microcal Software).
(§8) Drugs were initially dissolved at concentrations of 10-100 mM in DMSO. Dilutions were then made to generate a series of DMSO stock solutions over the range 10 μM to 100 mM. Working solutions were made by 1000-3000 fold dilution of stocks into Ringer. […]

[2] = biological target: NR1A/2C NMDA receptor (Rattus norvegicus, UniProt P35439+Q00961); assay: Xenopus oocyte expression system, two-electrode voltage clamp, NR1A/2C; type: cell-based
From the text: as §1, §2, §3, §4, §5, §6, §7, §8

[3] = biological target: NR1A/2A NMDA receptor (Rattus norvegicus, UniProt P35439+Q00959); assay: Xenopus oocyte expression system, two-electrode voltage clamp, NR1A/2A; type: cell-based
From the text: as §1, §2, §3, §4, §5, §6, §7, §8

[4] = system: Maximal Electroshock-induced Seizures; assay: Maximal electroshock-induced seizures; type: in vivo, mice; details: Mus musculus, read-out: Mes. ED50
Method: Maximal Electroshock-induced Seizures. Seizures were induced by application of current (50 mA, 60 pulses/sec, 0.8 sec pulse width, 1 sec duration, d.c.) through saline-coated corneal electrodes using a Ugo Basile ECT device (Model 7801). […] A tonic seizure was defined as a hindlimb extension in excess of 90 degrees from the plane of the body. Results were treated in a quantal manner.

[5] = cloned NR1A/2B subunits expressed in Xenopus oocytes, inhibition of agonist-evoked membrane current, read-out: 1A/2B IC50
[6] = cloned NR1A/2C subunits expressed in Xenopus oocytes, inhibition of agonist-evoked membrane current, read-out: 1A/2C IC50
[7] = cloned NR1A/2A subunits expressed in Xenopus oocytes, inhibition of agonist-evoked membrane current, read-out: 1A/2A IC50
[8] = mice, tonic hindlimb extensor response after corneal current 50 mA

Sequence of NR1A/2C NMDA receptor (Q00961 20-1237, other chains not shown): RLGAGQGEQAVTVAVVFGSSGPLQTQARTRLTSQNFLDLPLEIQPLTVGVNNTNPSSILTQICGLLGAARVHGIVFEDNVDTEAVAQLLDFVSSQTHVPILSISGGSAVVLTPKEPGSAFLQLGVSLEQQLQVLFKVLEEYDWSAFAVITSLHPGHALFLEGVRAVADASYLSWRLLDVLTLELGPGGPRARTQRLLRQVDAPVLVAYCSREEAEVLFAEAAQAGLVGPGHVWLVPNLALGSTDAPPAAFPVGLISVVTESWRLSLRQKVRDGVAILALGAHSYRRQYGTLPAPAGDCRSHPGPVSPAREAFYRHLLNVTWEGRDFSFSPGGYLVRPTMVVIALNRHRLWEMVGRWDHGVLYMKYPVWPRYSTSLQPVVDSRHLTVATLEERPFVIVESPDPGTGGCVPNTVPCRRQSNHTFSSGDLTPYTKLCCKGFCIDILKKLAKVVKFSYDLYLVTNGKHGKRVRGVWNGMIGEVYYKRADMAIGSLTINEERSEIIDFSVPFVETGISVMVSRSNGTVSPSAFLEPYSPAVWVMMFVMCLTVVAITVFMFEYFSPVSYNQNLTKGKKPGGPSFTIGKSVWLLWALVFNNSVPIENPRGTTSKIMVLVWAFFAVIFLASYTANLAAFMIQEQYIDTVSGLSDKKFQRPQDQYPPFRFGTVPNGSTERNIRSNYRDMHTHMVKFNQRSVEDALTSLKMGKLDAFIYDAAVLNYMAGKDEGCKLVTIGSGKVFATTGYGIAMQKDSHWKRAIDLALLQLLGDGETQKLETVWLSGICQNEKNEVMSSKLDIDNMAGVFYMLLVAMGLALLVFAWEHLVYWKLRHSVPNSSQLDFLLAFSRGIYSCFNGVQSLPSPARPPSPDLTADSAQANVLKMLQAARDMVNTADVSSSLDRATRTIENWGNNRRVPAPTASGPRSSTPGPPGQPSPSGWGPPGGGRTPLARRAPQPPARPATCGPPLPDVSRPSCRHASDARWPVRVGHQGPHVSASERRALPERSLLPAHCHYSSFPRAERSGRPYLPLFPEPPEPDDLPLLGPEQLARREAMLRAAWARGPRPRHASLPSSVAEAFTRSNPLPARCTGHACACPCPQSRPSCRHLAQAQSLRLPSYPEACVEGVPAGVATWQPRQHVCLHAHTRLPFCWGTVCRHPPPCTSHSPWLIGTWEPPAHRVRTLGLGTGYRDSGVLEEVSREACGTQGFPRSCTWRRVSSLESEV
Sequence of NR1A/2A NMDA receptor (Q00959 20-1464 limits assumed, other chains not shown): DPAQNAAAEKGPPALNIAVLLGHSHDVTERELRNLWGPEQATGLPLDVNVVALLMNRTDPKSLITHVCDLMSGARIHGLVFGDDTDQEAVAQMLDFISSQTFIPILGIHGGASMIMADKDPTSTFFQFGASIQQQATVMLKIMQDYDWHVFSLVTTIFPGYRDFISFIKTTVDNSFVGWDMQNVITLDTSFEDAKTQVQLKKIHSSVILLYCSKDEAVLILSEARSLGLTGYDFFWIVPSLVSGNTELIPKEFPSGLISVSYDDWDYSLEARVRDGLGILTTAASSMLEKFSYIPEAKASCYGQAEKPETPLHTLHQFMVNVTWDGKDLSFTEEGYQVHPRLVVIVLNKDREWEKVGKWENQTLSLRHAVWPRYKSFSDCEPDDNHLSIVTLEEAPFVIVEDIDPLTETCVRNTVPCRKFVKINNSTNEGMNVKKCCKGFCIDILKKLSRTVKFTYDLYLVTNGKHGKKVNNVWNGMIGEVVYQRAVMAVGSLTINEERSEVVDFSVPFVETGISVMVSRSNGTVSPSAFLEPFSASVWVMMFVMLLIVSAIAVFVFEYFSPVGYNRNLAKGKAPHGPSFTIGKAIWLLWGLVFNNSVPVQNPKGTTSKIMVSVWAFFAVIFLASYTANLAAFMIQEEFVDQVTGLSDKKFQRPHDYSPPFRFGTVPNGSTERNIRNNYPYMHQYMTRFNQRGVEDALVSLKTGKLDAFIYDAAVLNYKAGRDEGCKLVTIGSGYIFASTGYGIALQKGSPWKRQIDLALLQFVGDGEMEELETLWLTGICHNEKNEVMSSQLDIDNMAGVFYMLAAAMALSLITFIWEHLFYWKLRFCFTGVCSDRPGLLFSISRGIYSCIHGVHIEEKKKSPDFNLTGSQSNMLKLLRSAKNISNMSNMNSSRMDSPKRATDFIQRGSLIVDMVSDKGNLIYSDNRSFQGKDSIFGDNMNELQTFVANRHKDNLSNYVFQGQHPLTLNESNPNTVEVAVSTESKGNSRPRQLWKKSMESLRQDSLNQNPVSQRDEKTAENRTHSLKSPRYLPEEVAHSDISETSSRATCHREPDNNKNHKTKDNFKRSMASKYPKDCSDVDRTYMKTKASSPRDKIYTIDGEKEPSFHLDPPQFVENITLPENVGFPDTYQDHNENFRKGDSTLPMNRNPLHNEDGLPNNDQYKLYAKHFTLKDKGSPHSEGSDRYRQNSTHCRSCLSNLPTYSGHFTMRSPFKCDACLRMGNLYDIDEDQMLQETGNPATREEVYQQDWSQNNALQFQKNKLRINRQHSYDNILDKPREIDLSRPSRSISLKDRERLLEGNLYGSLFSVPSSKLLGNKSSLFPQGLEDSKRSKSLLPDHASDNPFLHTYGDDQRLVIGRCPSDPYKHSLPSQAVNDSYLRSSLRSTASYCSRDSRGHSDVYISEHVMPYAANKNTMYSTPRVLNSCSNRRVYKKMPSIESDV
Sequence of NR1A/2B NMDA receptor (Q00960 27-1482, other chains not shown): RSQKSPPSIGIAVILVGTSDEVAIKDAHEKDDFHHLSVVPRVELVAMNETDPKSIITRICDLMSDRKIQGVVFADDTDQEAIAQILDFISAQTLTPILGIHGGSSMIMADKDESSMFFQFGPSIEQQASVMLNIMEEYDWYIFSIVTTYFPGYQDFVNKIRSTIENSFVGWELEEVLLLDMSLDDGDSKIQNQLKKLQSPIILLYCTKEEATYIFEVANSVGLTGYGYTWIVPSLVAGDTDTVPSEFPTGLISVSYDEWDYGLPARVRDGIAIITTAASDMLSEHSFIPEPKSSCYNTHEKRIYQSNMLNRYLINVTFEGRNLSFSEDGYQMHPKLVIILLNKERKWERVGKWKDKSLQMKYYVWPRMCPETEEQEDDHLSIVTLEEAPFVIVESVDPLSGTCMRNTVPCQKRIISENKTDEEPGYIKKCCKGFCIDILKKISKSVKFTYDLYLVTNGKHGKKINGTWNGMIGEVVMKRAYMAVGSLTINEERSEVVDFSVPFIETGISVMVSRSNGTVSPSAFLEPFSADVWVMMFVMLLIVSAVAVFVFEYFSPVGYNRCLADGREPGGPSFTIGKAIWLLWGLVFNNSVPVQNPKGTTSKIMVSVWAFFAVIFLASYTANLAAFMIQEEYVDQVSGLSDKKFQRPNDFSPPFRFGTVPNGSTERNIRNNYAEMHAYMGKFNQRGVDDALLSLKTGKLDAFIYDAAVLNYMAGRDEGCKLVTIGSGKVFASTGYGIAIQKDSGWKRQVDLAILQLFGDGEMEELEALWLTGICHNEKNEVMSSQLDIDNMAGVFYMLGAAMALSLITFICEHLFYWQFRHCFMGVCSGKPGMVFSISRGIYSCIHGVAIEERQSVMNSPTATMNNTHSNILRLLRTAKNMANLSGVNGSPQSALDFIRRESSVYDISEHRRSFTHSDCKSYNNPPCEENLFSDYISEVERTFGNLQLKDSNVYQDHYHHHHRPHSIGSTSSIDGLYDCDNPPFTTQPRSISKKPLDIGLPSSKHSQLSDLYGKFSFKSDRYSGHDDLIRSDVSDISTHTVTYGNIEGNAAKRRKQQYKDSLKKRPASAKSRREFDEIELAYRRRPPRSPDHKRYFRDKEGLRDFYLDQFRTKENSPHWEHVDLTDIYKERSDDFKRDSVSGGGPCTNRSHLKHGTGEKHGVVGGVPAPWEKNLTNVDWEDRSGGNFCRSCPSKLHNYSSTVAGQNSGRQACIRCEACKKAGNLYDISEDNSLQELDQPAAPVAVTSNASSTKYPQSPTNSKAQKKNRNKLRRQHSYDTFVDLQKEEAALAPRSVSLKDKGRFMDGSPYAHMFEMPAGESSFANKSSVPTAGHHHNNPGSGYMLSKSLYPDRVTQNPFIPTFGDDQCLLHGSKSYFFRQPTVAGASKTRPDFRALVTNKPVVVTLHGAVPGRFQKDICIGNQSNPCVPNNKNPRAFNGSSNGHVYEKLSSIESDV

| Compound | IC50 [1, 5] | IC50 [2, 6] | melting point | IC50 [3, 7] | ED50 [4] | ED50 [4, 8] | IC50 [1] | IC50 [2] | IC50 [3] |
| --- | --- | --- | --- | --- | --- | --- | --- | --- | --- |
| Br.Fc1ccc(OCCNN2CCC(Cc3ccc(Cl)cc3)CC2)cc1 [Ex. 106, 4-(4-Chlorobenzyl)-1-(N-(2-(4-fluorophenoxy)ethyl)amino)piperidine hydrobromide] | 5 µM | 23 µM | 214 to 215 °C (dec.) | 8.5 µM | – | – | – | – | – |
| c1ccc(OCCCN2CCc3c([nH]c4ccccc34)C2)cc1 [Ex. 25, 2-(3-Phenoxypropyl)-1,2,3,4-tetrahydro-9H-pyrido[3,4-b]indole] | 9 µM | 175 µM | 123 to 124 °C | 60 µM | – | – | – | – | – |
| CC(O)CCN1CCC(Cc2ccc(F)cc2)CC1 (stereo not shown) [Ex. 91, 4-(4-Fluorobenzyl)-1-(3-hydroxybutyl) piperidine hydrochloride] | 2.5 µM | > 300 µM | – | 230 µM | 6 mg/kg | – | – | – | – |
| c1ccc(CCCN2CCc3c([nH]c4ccccc34)C2)cc1 [Ex. 26, 2-(3-Phenylpropyl)-1,2,3,4-tetrahydro-9H-pyrido[3,4-b]indole] | 15 µM | 105 µM | 130 to 131 °C | 30 µM | – | – | – | – | – |
| OCC(O)CN1CCC(Cc2ccccc2)CC1 (stereo not shown) [Ex. 85, 4-Benzyl-1-(2,3-dihydroxypropyl)piperidine] | 6 µM | > 300 µM | 92 to 94 °C | > 300 µM | – | – | – | – | – |
| Cc1ccc(CC2CCN(CCC(C)O)CC2)cc1.Cl (stereo not shown) [Ex. 104, 4-(4-methylbenzyl)-1-(3-hydroxy-butyl) piperidine hydrochloride] | 0.8 µM | > 300 µM | 134 to 136 °C | 110 µM | – | 2 mg/kg | – | – | – |
| Cl.Oc1ccc(OCCN2CCC(C[C@]34C[C@H]5C[C@H](C[C@H](C5)C3)C4)CC2)cc1 [Ex. 107, 4-(1-Adamantylmethyl)-1-(2-(4-hydroxyphenoxy)ethyl)piperidine] | 160 µM | 75 µM | 178 to 179 °C | 250 µM | – | – | – | – | – |
| CC(O)CCN1CCC(Cc2ccccc2)CC1.Cl (stereo not shown) [Ex. 100, 4-benzyl-1-(3-hydroxy-butyl) piperidine hydrochloride] | – | – | 133 to 135 °C | – | 3.5 mg/kg | – | 3 µM | > 300 µM | > 300 µM |
| COc1ccc(CC2CCN(CCCO)CC2)cc1 [Ex. 93, 1-(3-Hydroxypropyl)-4-(4-methoxybenzyl) piperidine hydrobromide] | 9 µM | > 300 µM | – | > 300 µM | 8 mg/kg | – | – | – | – |
| CC(O)CCN1CCC(Cc2ccc(Cl)cc2)CC1.Cl (stereo not shown) [Ex. 99, 4-(4-chlorobenzyl)-1-(3-hydroxybutyl) piperidine hydrochloride] | 1.6 µM | > 300 µM | 96 to 101 °C | > 300 µM | – | 6 mg/kg | – | – | – |
| OCCCN1CCC(Cc2ccccc2)CC1 [Ex. 83, 4-Benzyl-1-(3-hydroxypropyl)piperidine hydrobromide] | 1.8 µM | > 300 µM | – | 224 µM | 3.5 mg/kg | – | – | – | – |
| CC(O)CCN1CCC(Cc2ccc([N+](=O)[O-])cc2)CC1.Cl (stereo not shown) [Ex. 101, 4-(4-nitrobenzyl)-1-(3-hydroxybutyl) piperidine hydrochloride] | 280 µM | – | 105 to 107 °C | 260 µM | – | – | – | – | – |
| OCCCN1CCC(Cc2ccc(Cl)cc2)CC1 [Ex. 89, 4-(4-Chlorobenzyl)-1-(3-hydroxypropyl) piperidine hydrobromide] | 0.3 µM | > 100 µM | – | 150 µM | – | 5 mg/kg | – | – | – |
| OCCN1CCC(Cc2ccccc2)CC1 [Ex. 82, 4-Benzyl-1-(2-hydroxyethyl)piperidine] | 3.3 µM | > 300 µM | 62 to 64 °C | 290 µM | – | – | – | – | – |
| CC(C)(O)CCN1CCC(Cc2ccccc2)CC1.Cl [Ex. 102, 4-benzyl-1-(3-hydroxy-3-methylbutyl) piperidine hydrochloride] | – | – | 136 to 138 °C | – | – | – | 3.5 µM | > 300 µM | > 300 µM |
| CC(CCO)N1CCC(Cc2ccccc2)CC1 (stereo not shown) [Ex. 84, 4-Benzyl-1-(3-hydroxy-1-methylpropyl)piperidine] | 6 µM | > 300 µM | 74 to 76 °C | 270 µM | – | – | – | – | – |
| Oc1ccc(CCNC2=NCC(Cc3ccccc3)CN2)cc1 (stereo not shown) [Ex. 103, 2-[2-(4-Hydroyphenyl)ethylamino]-5-benzyl-1,3-diazacyclohexene] | 0.2 µM | 58 µM | 153 to 155 °C | 3.5 µM | – | – | – | – | – |
